pIC50: −log10 of the molar value. Counter-ions that a name gives are not always drawn.
How the values were obtained:
[1] = molecular target: T1, rat CB1 receptor (Rattus norvegicus, UniProt P20272); assay: CB1 luciferase reporter gene test (CHOluc9 cells stably transfected with rat CB1); type: cell-based; conditions: forskolin stimulated
T1 construct: contains an open reading frame of 1419 base pairs which corresponds to a protein of 473 amino acids; expressed in transfected cells; host or cells: CHOluc9 reporter cells stably transfected with plasmid CMV-RH (rat CB1 cDNA in pRc/CMV)
T1 sequence (P20272 whole entry): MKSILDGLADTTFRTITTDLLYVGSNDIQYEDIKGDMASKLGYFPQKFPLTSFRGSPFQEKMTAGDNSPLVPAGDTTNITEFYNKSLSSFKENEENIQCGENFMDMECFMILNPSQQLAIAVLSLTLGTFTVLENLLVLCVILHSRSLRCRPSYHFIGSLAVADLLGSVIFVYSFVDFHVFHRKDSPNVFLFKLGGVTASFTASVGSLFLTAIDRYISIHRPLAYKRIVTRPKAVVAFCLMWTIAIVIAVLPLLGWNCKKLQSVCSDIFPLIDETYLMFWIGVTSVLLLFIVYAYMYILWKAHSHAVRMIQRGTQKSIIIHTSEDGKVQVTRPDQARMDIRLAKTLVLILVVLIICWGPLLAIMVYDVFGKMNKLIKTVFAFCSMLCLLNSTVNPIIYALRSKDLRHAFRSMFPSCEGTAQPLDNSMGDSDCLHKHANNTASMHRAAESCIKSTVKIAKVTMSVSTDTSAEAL
Description: CB1—Luciferase Reporter Gene Test
1. Cloning of the Rat Cannabinoid Receptor CB1
Total RNA from rat brain (the tissue was taken from freshly killed animals and shock-frozen in liquid nitrogen) was isolated by acidic guanidinium thiocyanate/phenol/chloroform extraction (J. Biol. Chem. 1979, 18, 5294) and converted into cDNA by means of reverse transcriptase and random primers (in each case from Invitrogen). The polymerase chain reaction (PCR, conditions: 4 min 94° C., 1H; 1 min 94° C.; 2 min 53° C.; 1 min 72° C., 50 cycles; 1 min 94° C., 2 min 53° C., 4 min 72° C., 1H) was carried out in a Perkin Elmer thermocycler using the enzyme Taq polymerase (Perkin Elmer); the oligonucleotide primers employed (bases 99 to 122: 5′63′, “down”; 1556-1575: 3′75′, “up”) were derived from the published sequence of the rat cannabinoid receptor (Nature 1990, 346, 561) and were synthesized on a DNA synthesizer, model 1380 from Applied Biosystems. One part of the PCR reaction was separated in a 1% strength agarose gel in 1H TBE buffer and then stained with ethidium bromide, only one band having the expected length being visible (approximately 1.5 kb). This PCR product was subcloned into the TA cloning vector (Invitrogen) and the nucleotide sequence of the insert was determined by the dideoxynucleotide chain termination reaction using T7DNA polymerase (Sequenase, USA/Amersham). The insert has a length of 1477 base pairs and contains an open reading frame of 1419 base pairs which corresponds to a protein of 473 amino acids. The number of base pairs, the position of the open reading frame and the number of amino acids agree with the published sequence. Computer analyses were carried out with the aid of the GCG software suite (Genetic Computer Group). The cDNA insert was subcloned into the expression vector pRc/CMV (Invitrogen) after partial digestion with HindIII and NotI (Biolabs). This construct (plasmid CMV-RH) was employed for transfection experiments.
2. Stable Transfection of the CHOluc9 Reporter Cells
CHOluc9 cells were cultured in 50% Dulbecco's modified Eagle medium/50% F-12 (DMEM/F12) which contained 10% foetal calf serum (FCS). Transfections were prepared in 6-well plates. 7.5 μg of Qiagen-purified CMV-RH plasmid DNA were added per […] with the DOTAP transfection system, corresponding to the experimental protocol of the manufacturer (Boehringer Mannheim). Transfected cells were selected using 1 mg/ml G418 and individual clones were obtained by limiting dilution in 96-well plates. Cell lines which express the cannabinoid receptor were identified for the inhibition of reporter gene expression after incubation with the cannabinoid receptor agonist, WIN-55,212-2, in the presence of forskolin. Several stably transfected and subcloned cell lines were further characterized by means of RT-PCR, as described under 1.
3. Test Optimization and Pharmacological Characterization of the CHOCB1 Reporter Cell Line
With the aim of high sensitivity and reproducibility, low variance and high suitability for carrying out on the robotic system, the luciferase test was optimized by variation of several test parameters, such as, for example, cell density, duration of the growth phase and the test incubation, forskolin concentration, medium composition. The following test protocol was used for pharmacological characterization of the cells and for robot-assisted substance screening: the stock cultures were cultured in 50% Dulbecco's modified Eagle medium/50% F-12 (DMEM/F12) with 10% FCS at 37° C. under 10% CO2 and in each case split 1:10 after 2 to 3 days. Test cultures were inoculated into 96-well plates at 5000 cells per well and cultured at 37° C. for 70 hours. The cultures were then carefully washed with phosphate-buffered saline and reconstituted using serum-free ultra-CHO medium (Bio-Whittaker). The substances dissolved in DMSO were diluted 1H in medium and pipetted into the test cultures (maximum DMSO final concentration in the test batch: 0.5%). […]

[2] = Solubility determination by precipitation method in physiological saline; type: physicochemical; conditions: saline or isotonic, kinetic from dmso stock, 25° C., shaken 1 hour, HPLC
Description: To determine the solubility, a precipitation method was used:
10 mg of the test substance are completely dissolved in 50 μl of DMSO (stock solution). From this solution, 20 μl are added to 2000 μl of physiological saline. This solution in turn is shaken at 25° C. in a Thermomixer Comfort (from Eppendorf) at 1400 rpm for 1 hour, for equilibration.
The precipitated fractions of the test substance are centrifuged off at 14,000 rpm for 5 min, using a Biofuge 15 from Heraeus. 1300 μl of the supernatant are again centrifuged using a Microfuge from Beckmann, at 45,000 rpm=125,000 g.
10 μl of this centrifugation supernatant are then diluted with 1000 μl of DMSO, and this solution is measured by HPLC. (Hewlett Packard 1090, method: gradient of 100% PBS buffer pH=4 over 15 min to 10% buffer/90% acetonitrile, column: RP18)
The measured peak area of the HPLC determination is converted into the substance concentration using a calibration curve. For the calibration curve, 20 μl of the stock solution are successively diluted with DMSO in such a manner that 5 concentrations of from 2.5 mg/l to 2000 mg/l are obtained. These solutions are likewise measured by HPLC (method see above) and the peak areas are plotted against the concentrations.

[3] = test system: rats; assay: Rat hypothermia - agonism testing; type: in vivo; conditions: i.v. administration
Description: Five minutes after determination of the basal body temperature via an oesophageal temperature probe, the test substance is administered (i.v.). A control group receives only the solvent of the test substances, likewise i.v. The body temperature is measured 7.5, 15, 30 and 60 minutes after i.v. administration. The group size per dose is 5-7 animals (rats).

Structure (SMILES) | pIC50 [1] | solubility at 1 h [2] [µg/mL] | ED−1° C. (effective dose for 1° C. body temperature reduction) [3] [mg/kg]
CC(C)[C@H](N)C(=O)OC[C@@H]1Cc2cccc(Oc3cccc(OS(=O)(=O)CCCC(F)(F)F)c3)c2C1 [Example 8, (R)-3-[2-((S)-Valinyloxymethyl)-indanyl-4-oxy]-phenyl 4,4,4-trifluoro-1-butanesulphonate hydrochloride] | 9.70 |  | 
CC(C)(C)OC(=O)NCC(=O)OC[C@@H]1Cc2cccc(Oc3cccc(OS(=O)(=O)CCCC(F)(F)F)c3)c2C1 [Example 1, (R)-3-[2-(N-tert-butyloxycarbonylglycinyl)-oxymethyl-indanyl-4-oxy]-phenyl 4,4,4-trifluoro-1-butanesulphonate] | 9.46 |  | 
NCC(=O)OC[C@@H]1Cc2cccc(Oc3cccc(OS(=O)(=O)CCCC(F)(F)F)c3)c2C1 [Example 5, (R)-3-(2-Glycinyl-oxymethyl)-indanyl-4-oxy)-phenyl 4,4,4-trifluoro-1-butanesulphonate hydrochloride] | 9.96 | 720 | 0.03
NCCC(=O)OC[C@@H]1Cc2cccc(Oc3cccc(OS(=O)(=O)CCCC(F)(F)F)c3)c2C1 [Example 7, (R)-3-[2-(3-Aminopropanoyloxymethyl)-indanyl-4-oxy)-phenyl 4,4,4-trifluoro-1-butanesulphonate hydrochloride] | 9.40 |  | 
CC(C)(C)OC(=O)NCCCCCCC(=O)OC[C@@H]1Cc2cccc(Oc3cccc(OS(=O)(=O)CCCC(F)(F)F)c3)c2C1 [Example 2, (R)-3-[2-(7-N-tert-Butyloxycarbonylaninoheptanoyloxymethyl)-indanyl-4-oxy]-phenyl 4,4,4-trifluoro-1-butanesulphonate] | 9.89 |  | 
NCCCCCCC(=O)OC[C@@H]1Cc2cccc(Oc3cccc(OS(=O)(=O)CCCC(F)(F)F)c3)c2C1 [Example 6, (R)-3-[2-(7-Aminoheptanoyloxymethyl)-indanyl-4-oxy)-phenyl 4,4,4-trifluoro-1-butanesulphonate hydrochloride] | 9.07 |  | 
